Measurements reported in US20220193029A1, “BRYOSTATIN COMPOUNDS FOR ENHANCEMENT OF IMMUNOTHERAPY” (priority 2019, published 2022).

What was measured:
[1] = test system: CD22 surface expression in NALM6 cells; assay: CD22 surface expression assay by flow cytometry; assay type: cell-based, human; conditions: Homo sapiens, NALM-6; At 1 nM, relative to DMSO control; NALM6 cells; read-out: Fold increase CD22 expression
Method: Cell cultures were maintained between 4×10^5 and 3×10^6 cells/mL according to vendor instructions.
Cell suspension from a confluent T75 flask (Fisher) was transferred to a 15 mL falcon tube and centrifuged at 1100 rpm for 7 minutes. […] Cells were counted using a Countess II Automated Cell Counter (Fisher). […] 199 μL of this stock was added to 24 wells (enough for triplicate measurements for 8 different experimental conditions) in a 96-well plate. […] 1 μL of DMSO or the appropriate stock solution of compound in DMSO was added to each well. Cells were incubated for 24 hours, at which point the cell suspensions were transferred to 1.5 mL Eppendorf tubes and diluted with 1.0 mL of PBS (Hyclone, without Ca^2+ or Mg^2+). Samples were centrifuged at 2000 rpm for 5 min at RT. […] Cells were sub-cultured between 2×10^5 and 3×10^6 cells/mL in 24-well plates for an additional 24 hrs-7 days, at which point CD22 surface expression was assayed by flow cytometry.
Cells from one well were counted using a Countess II Automated Cell Counter (Fisher). ˜200,000-300,000 cells from each well were added to 1.5 mL Eppendorf tubes containing PBS (final volume ˜1.2 mL). The cell suspensions were centrifuged at 1500 rpm for 7 minutes at 4° C. The supernatant was aspirated, and the cell pellet was resuspended in 99 μL of pre-chilled FACS buffer (0.5% w/v BSA in PBS). […] Samples were then diluted with an additional 1.0 mL of FACS buffer and centrifuged at 1500 rpm for 7 minutes at 4° C. […] Cells were stained with DAPI and CD22 surface expression was analyzed using the FACScan Analyzer at the Stanford Shared FACS Facility. Data analysis was performed using FlowJo and Microsoft Excel.

PKCδ-GFP fusion protein = assay: PKCδ-GFP translocation assay in living CHO-k1 cells (confocal microscopy); assay type: cell-based, Chinese hamster; conditions: for concentration* (minimum effective concentration required to induce translocation of PKC-GFP to the membrane) / % Translocation: CHO-k1 cells; for % Translocation: maximum translocation of PKCδ-GFP to the plasma membrane at the concentration printed in the same cell, SUW212: only brief translocation observed
Method: (§1) Because a prerequisite for PKC pathway involvement is binding to PKC, compounds were initially evaluated for PKC affinity in a cell-free competitive binding assay with tritiated phorbol dibutyrate ([^3H]-PDBu). Assays were performed with representative members of both the conventional (PKCα) and novel (PKCδ) PKC families. Subsequently, compounds were assayed for PKC activation in living cells using an isoform translocation assay.
Chinese hamster ovary factor K1 (CHO-k1, ATCC) cells were cultured in F-12 Kaighn's media (Hyclone, 10% fetal bovine serum, 1% penicillin/streptomycin added, referred to as F-12+/+ below) at 37° C. in an incubator (5% CO2). Cell cultures were maintained by splitting cells 1:3 when they reached ˜75-100% confluence (every 2-3 days) as follows:
1 mL of the cell suspension was then added to 9 mL of fresh F-12+/+ and the sample was sub-cultured until reaching confluence (˜2-3 days).
Cells were counted using a Countess II Automated Cell Counter (Fisher). The cell suspension was diluted to 240,000 cells/mL with fresh F-12+/+ and 2.5 mL of this diluted stock was added to one well in a 6-well plate. The cells were then cultured for 24 hours.
F-12+/+ was aspirated and cells were washed with F-12−/−. 2 mL of fresh F-12−/− was then added to each well, taking care not to disturb adherent cells. For each well of CHO-k1 cells, 12.5 μL Lipofectamine 2000 reagent (Invitrogen) was added to 250 μL Opti-MEM reduced serum media (Invitrogen) in a polypropylene tube and incubated for 20 minutes at RT. Meanwhile, for each well, 4 μg of PKCδ-GFP pDNA and 250 μL Opti-MEM reduced serum media was added to a separate polypropylene tube. 250 μL of the Lipofectamine 2000 suspension was added to the DNA suspension and the solution incubated for 30 minutes at RT. 500 μL of the Lipofectamine/DNA suspension was added to the respective wells of the 6-well plate. The cells were then incubated at 37° C. (5% CO2) for ˜24 hrs.
F-12+/+ was aspirated and cells were washed with F-12−/−. 2.4 mL of fresh F-12−/− was then added to each well, taking care not to disturb adherent cells. A 4 μg aliquot of PKCδ-GFP pDNA was added to PBS (pH 5.5, final volume 100 μL). 5.6 μL of DA 13:11 (2 mM stock in DMSO) was then added to the DNA solution, and the mixture was gently mixed (by flicking) for 20 seconds, at which point it was added directly to the respective wells of the 6-well plate. The cells were then incubated at 37° C. (5% C02) for ˜24 hrs.
After incubation, the media was aspirated and cells were washed with PBS (2.0 mL) and trypsinized (500 μL). The cell suspension was then diluted with 2.0 mL F-12+/+. 200 μL aliquots were added to 3 wells of a Lab-Tek II 4-well chambered coverglass slide (Fisher), producing 4 slides in total, each with three wells of cells. The cell suspension was directly diluted with 600 μL of additional F-12+/+. The resulting samples were incubated for ˜24 hrs. prior to imaging.
Fluorescent images were obtained using a Leica SP8 White Light Confocal microscope and the Leica AF software package. Prior to analysis, media was aspirated and 800 μL of PBS (Hyclone, without Ca^2+ or Mg^2+) supplemented with glucose (10 mM) was added to each well of the chambered coverglass slide. Bryostatin and bryostatin analogs were diluted to the appropriate concentration in 200 μL of 10 mM glucose in PBS. Cells were located for imaging and data was recorded for three wells in parallel, imaging at predetermined positions in each well using adaptive focus control. Cells were imaged at 30 second intervals following the addition of compound (set to t=0) for 20-40 minutes. Data were recorded at room temperature. Images were exported as .lif files and fluorescence intensity was analyzed using FIJI (NIH) software.

PKCδ = biological target: T1, PKCδ (Homo sapiens, UniProt Q05655); assay: cell-free competitive PKC binding assay with [3H]-phorbol dibutyrate; conditions: competition with [3H]-PDBu, recombinant human PKC isoform
T1 construct: purchased Invitrogen
T1 sequence (Q05655 whole entry, canonical isoform): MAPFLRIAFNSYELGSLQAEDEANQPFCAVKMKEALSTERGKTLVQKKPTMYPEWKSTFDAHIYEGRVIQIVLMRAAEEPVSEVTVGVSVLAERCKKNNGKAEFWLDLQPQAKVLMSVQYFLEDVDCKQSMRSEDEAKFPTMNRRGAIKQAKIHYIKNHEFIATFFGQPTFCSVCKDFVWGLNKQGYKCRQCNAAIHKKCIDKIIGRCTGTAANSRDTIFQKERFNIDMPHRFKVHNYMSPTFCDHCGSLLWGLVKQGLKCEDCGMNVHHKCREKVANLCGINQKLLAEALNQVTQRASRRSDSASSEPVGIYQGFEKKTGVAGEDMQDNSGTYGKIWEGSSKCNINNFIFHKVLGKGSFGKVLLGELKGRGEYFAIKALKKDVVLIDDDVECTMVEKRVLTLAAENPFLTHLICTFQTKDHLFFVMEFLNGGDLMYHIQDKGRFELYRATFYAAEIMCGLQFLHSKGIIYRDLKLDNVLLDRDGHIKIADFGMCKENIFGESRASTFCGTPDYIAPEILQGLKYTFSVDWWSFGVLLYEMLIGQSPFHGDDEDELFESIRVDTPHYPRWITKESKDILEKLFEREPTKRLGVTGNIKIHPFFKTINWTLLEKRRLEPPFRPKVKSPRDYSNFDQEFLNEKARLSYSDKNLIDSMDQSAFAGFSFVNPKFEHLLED
Method: as §1
(§2) To a 50 mL polypropylene tube was added Tris-HCl (pH 7.4, 1 M, 1 mL), KCl (1 M, 2 mL), CaCl2) (0.1 M, 30 μL), and bovine serum albumin (BSA, 40 mg, Sigma-Aldrich). This mixture was diluted to 20 mL with deionized H2O and mixed gently. The buffer was stored on ice until use.
(§3) For every two assays, 3.5 mg phosphatidylserine (Avanti Polar Lipids, porcine, 25 mg/mL CHCl3 solution) was concentrated by removing chloroform under a stream of nitrogen followed by reduced pressure. The solid PS was suspended as vesicles in freshly prepared PKC binding assay buffer (3.5 mL) by sonicating six times for 30 sec, with a 30 sec rest between sonications (Branson Sonifier 250, power=2, 50% duty cycle). The resulting milky cloudy mixture (1 mg/mL) was stored on ice until use.
(§4) Assay PKC was prepared by dissolving a 4 μg aliquot of the indicated recombinant human PKC isoform (Invitrogen) into 11.6 mL of PKC binding assay buffer (this amount is sufficient for two assays). The diluted PKC was stored on ice for immediate use.
(§5) ^3H-PDBu (American Radiolabeled Chemicals, Inc.; 1 mCi/mL acetone solution; specific activity: 20 Ci/mmol) was diluted […] with DMSO. The resulting 500 nM stock solution was further diluted with DMSO to 30 nM.
(§6) Compound dilutions were prepared by serially diluting from a chosen “high” concentration by factors of 3 or 4.
(§7) To a polypropylene tube was added 3.3 mL of 1 mg/mL PS vesicles solution, 11 mL of PKC isoform solution, and 1.1 mL of 30 nM ^3H-PDBu solution were added. The resulting solution was vortexed to mix and stored on ice.
(§8) Materials: • Glass-fiber filters (Whatman GF/B) were prepared by soaking them in a solution of aqueous polyethyleneimine (10% by vol, 18 mL) in deionized water (600 mL) for ≥1 h. • 500 mL “rinsing buffer” of 20 mM Tris, pH 7.4 was cooled on ice for the duration of the incubation period and for the remainder of the assay.
Triplicate data points were obtained for each analog concentration. For each data point, 280 μL of “Master Mix” Solution and 20 μL of analog compound at a specified concentration were added to a polypropylene tube. […] Maximal ^3H-PDBu binding was assessed in triplicate by substitution of the analog compound with 20 μL DMSO. The solutions were vortexed to mix, incubated at 37° C. for 10 min, and incubated on ice for at least 30 min prior to filtration. Using a Brandel Harvester, the assay contents from each polypropylene tube were vacuum-filtered through polyethylenimine-soaked filters, washing with rinsing buffer (3×) and drying first under vacuum for 5 min and then under ambient conditions for ≥2 h. The resulting filters had circular perforations for each data point, which were removed with forceps and placed in a scintillation vial. Scintillation vials were filled with Bio-Safe II scintillation fluid (5 mL) and measured for radioactivity using a Beckman LS 6000SC scintillation counter. Counts per minute (cpm) were averaged for each triplicate dilution. The data were plotted—cpm vs. log(concentration)—using Prism® by GraphPad Software and an IC50 was determined using that program's built-in one-site competition least squares regression function. […] The Kd of ^3H-PDBu for PKC isoforms was measured separately via saturation binding experiments under identical conditions.

PKCα = biological target: T2, PKCα (Homo sapiens, UniProt P17252); assay: as above; conditions: competition with [3H]-PDBu, recombinant human PKC isoform
T2 construct: purchased Invitrogen
Method: as §1, §2, §3, §4, §5, §6, §7, §8
(§9) Triplicate data points were obtained for each analog concentration. For each data point, 280 μL of “Master Mix” Solution and 20 μL of analog compound at a specified concentration were added to a polypropylene tube. […] Maximal ^3H-PDBu binding was assessed in triplicate by substitution of the analog compound with 20 μL DMSO. The solutions were vortexed to mix, incubated at 37° C. for 10 min, and incubated on ice for at least 30 min prior to filtration. Using a Brandel Harvester, the assay contents from each polypropylene tube were vacuum-filtered through polyethylenimine-soaked filters, washing with rinsing buffer (3×) and drying first under vacuum for 5 min and then under ambient conditions for ≥2 h. The resulting filters had circular perforations for each data point, which were removed with forceps and placed in a scintillation vial. Scintillation vials were filled with Bio-Safe II scintillation fluid (5 mL) and measured for radioactivity using a Beckman LS 6000SC scintillation counter. Counts per minute (cpm) were averaged for each triplicate dilution. The data were plotted—cpm vs. log(concentration)—using Prism® by GraphPad Software and an IC50 was determined using that program's built-in one-site competition least squares regression function. Ki values were calculated using the equation: Ki=IC50/(1+([3H−PDBu]/Kd)). The Kd of ^3H-PDBu for PKC isoforms was measured separately via saturation binding experiments under identical conditions.

PKC = assay: cell-free PKC binding assay, isoform not given; set-up: species or system human
Method: as §1, §4, §9

| Structure (SMILES) | fold induction at 0.001 µM [1] | concentration* (minimum effective concentration required to induce translocation of PKC-GFP to the membrane) (PKCδ-GFP fusion protein) [nM] | % Translocation (PKCδ-GFP fusion protein) [%] | cytosolic PKC translocated to the plasma membrane (PKCδ-GFP fusion protein; 200 nM, at 20 minutes) [%] | Ki (PKCδ) [nM] | Ki (PKCα) [nM] | binding affinity to PKC, in words (PKC) | activity in the PKC translocation assay at 200 nM (PKCδ-GFP fusion protein; 200 nM) | cytosolic PKC translocated to the plasma membrane (PKCδ-GFP fusion protein; 1000 nM, at about 5 minutes) [%] | sustained translocation of PKC (PKCδ-GFP fusion protein; at up to 1000 nM) |
| --- | --- | --- | --- | --- | --- | --- | --- | --- | --- | --- |
| C=C1CC2C=CC(C)(C)C3(O)OC(CC(=CC(=O)OC)C3OC(=O)C#CCCCCC)CC(C(C)O)OC(=O)CC(O)CC3CC(OC(C)=O)C(C)(C)C(O)(CC(C1)O2)O3 (centres unmarked) [SUW200] | 1.73 | 200 | 70 | – | – | – | – | – | – | – |
| CCCCCC#CC(=O)O[C@H]1/C(=C/C(=O)OC)C[C@H]2C[C@H]([C@@H](C)O)OC(=O)C[C@H](O)C[C@@H]3C[C@H](OC(C)=O)C(C)(C)[C@](O)(C[C@@H]4C[C@H](O)C[C@H](/C=C/C(C)(C)[C@]1(O)O2)O4)O3 [SUW204] | – | 200 | 25 | ~25 | – | – | – | – | – | – |
| CCCC=CC=CC(=O)OC1C(=CC(=O)OC)CC2CC(C(C)O)OC(=O)CC(O)CC3CC(OC(C)=O)C(C)(C)C(O)(CC4CC(OC(=O)CC56CC7CC(CC(C7)C5)C6)CC(C=CC(C)(C)C1(O)O2)O4)O3 (centres unmarked) [SUW209] | – | 1000 | 60 | – | 3.5 | 1.6 | high affinity PKC binders | inactive | ~70 | – |
| CCC/C=C/C=C/C(=O)O[C@H]1/C(=C/C(=O)OC)C[C@H]2C[C@H]([C@@H](C)O)OC(=O)C[C@H](O)C[C@@H]3C[C@H](OC(C)=O)C(C)(C)[C@](O)(C[C@@H]4C[C@H](OC(=O)CN(C)C)C[C@H](/C=C/C(C)(C)[C@]1(O)O2)O4)O3 [SUW211] | – | 1000 | 20 | – | 27 | 98 | – | – | – | did not achieve sustained translocation |
| CCC/C=C/C=C/C(=O)O[C@H]1/C(=C/C(=O)OC)C[C@H]2C[C@H]([C@@H](C)O)OC(=O)C[C@H](O)C[C@@H]3C[C@H](OC(C)=O)C(C)(C)[C@](O)(C[C@@H]4C/C(=C\C(=O)OCc5ccccc5)C[C@H](/C=C/C(C)(C)[C@]1(O)O2)O4)O3 [SUW220] | – | 1000 | 50 | – | 15 | 16 | – | – | – | – |
| C=CCOC(=O)/C=C1\C[C@H]2C[C@]3(O)O[C@H](C[C@@H](O)CC(=O)O[C@@H]([C@@H](C)O)C[C@@H]4C/C(=C\C(=O)OC)[C@H](OC(=O)/C=C/C=C/CCC)[C@@](O)(O4)C(C)(C)/C=C/[C@@H](C1)O2)C[C@H](OC(C)=O)C3(C)C [SUW230] | – | 200 | 65 | – | 9.4 | 4.2 | – | – | – | – |
